Test results as given in US20110112100A1, “Hepatitis C Virus Inhibitors” (priority 2009, published 2011).
Counter-ions that a name gives are not always drawn. Like-named read-outs stand apart in the source and are kept apart here.

Legend:
1a-H77 replicon cells = assay: HCV 1a replicon inhibitory activity (Renilla luciferase); type: cell-based, hepatitis C virus; details: read-out: IC50 value (95% Confidence Intervals) pM Replicon 1A assay
Experimental: (§1) Test compounds were solubilised to 4 mM in 100% DMSO. Dilutions were made to the desired starting concentration in 100% DMSO and then 1 in 3 dilutions made, again in 100% DMSO. 0.5 μl of each sample was added to 384-well assay plates. White Lumitrac (Greiner) plates were used for the 1a and 1b replicon assays and black, clear bottomed (Greiner) plates were used for the WST-1 cytotoxity assay.
1a-H77 replicon cells (licensed from Apath LLC) were resuspended to a concentration of 1.4×10^5 cells/ml by addition of pre-warmed assay medium (Dulbecco's Modified Eagle's Medium (DMEM)+10% fetal calf serum (FCS)). 50 μl of this suspension was added to each well of a 384-well assay plate (Lumitrac, Greiner), already containing 0.5 μl of test compound.
All plates were covered with gas permeable seals and incubated at 37° C., 5% CO2 for 48 hours. After 48 hours, the assay plate was removed from the incubator and left to cool to room temperature for 15 to 30 mins. Medium was removed from the wells and 5 μl 1× lysis buffer (from Promega's Renilla Luciferase assay kit, E2820) was added to each well. The plate was incubated at room temperature for 15 mins then 15 μl 1×Assay Substrate (from the same kit) was added to each well. Luminescence was read immediately using an EnVision (Perkin Elmer) plate reader. The half maximal effective concentration (1050) values were calculated by constructing log concentration-response curves for each compound.

1b (con1) replicon cells = assay: HCV 1b replicon inhibitory activity (luciferase, Britelite Plus); type: cell-based, hepatitis C virus; details: read-out: IC50 value (95% Confidence Intervals) pM Replicon 1B assay
Experimental: as §1
1b (con1) replicon cells (pFK1389lucubineo/NS3-3′/ET/9B, licensed from Ralf Bartenschlager, University of Heidelberg) were resuspended to a concentration of 1.4×10^5 cells/ml by addition of pre-warmed medium (DMEM+10% FCS). 50 μl of this suspension was added to each well of a 384-well assay plate (Lumitrac, Greiner) already containing 0.5 μl of test compound.
All plates were covered with gas permeable seals and incubated at 37° C., 5% CO2 for 48 hours. After 48 hours, the plate was removed from the incubator and left to cool to room temperature for 15-30 mins. 35 ul of reconstituted Lyophilised Britelite Plus Substrate (PerkinElmer, 6016767) to medium was added to each well. Luminescence was read after 1 min but before 15 mins on an EnVision (Perkin Elmer) plate reader. The half maximal effective concentration (1050) values were calculated by constructing log concentration-response curves for each compound.

[1] = Hepatitis C virus, geometric mean, 95% confidence intervals in parentheses, 48 hours, medium with 10% FCS
[2] = geometric mean, 95% confidence intervals in parentheses, 48 hours, medium with 10% FCS

Structure (SMILES)	IC50 (1a-H77 replicon cells; Hepatitis C virus, 48 h) [pM]	IC50 (1b (con1) replicon cells; Hepatitis C virus, 48 h) [pM]	IC50 (1a-H77 replicon cells; [2]) [pM]	IC50 (1b (con1) replicon cells; [2]) [pM]	also measured
COC(=O)N[C@H](C(=O)N1CCC[C@H]1c1nc(-c2ccc3cc(-c4ccc(-c5cnc([C@@H]6CCCN6C(=O)[C@@H](NC(=O)OC)C(C)C)[nH]5)cc4)ccc3n2)c[nH]1)C(C)C [Example 13, Methyl {(2S)-1-[(2S)-2-{5-[4-(2-{2-[(2S)-1-{(2S)-2-[(methoxycarbonyl)amino]-3-methyl-butanoyl}pyrrolidin-2-yl]-1H-imidazol-4-yl}quinolin-6-yl)phenyl]-1H-imidazol-2-yl}pyrrolidin-1-yl]-3-methyl-1-oxobutan-2-yl}carbamate]					IC50 (1a-H77 replicon cells; [1]): 78.1 pM; IC50 (1b (con1) replicon cells; [1]): 12 pM
COC(=O)N[C@H](C(=O)N1CCC[C@H]1c1nc(-c2ccc(-c3cnc4cc(-c5cnc([C@@H]6CCCN6C(=O)[C@@H](C)NC(C)=O)[nH]5)ccc4n3)cc2)c[nH]1)C(C)C [Example 46, Methyl {(2S)-1-[(2S)-2-{4-[4-(6-(2-[(2S)-1-(N-acetyl-D-alanyl)pyrrolidin-2-yl]-1H-imidazol-5-yl}quinoxalin-2-yl)phenyl]-1H-imidazol-2-yl}pyrrolidin-1-yl]-3-methyl-1-oxobutan-2-yl}carbamate trifluoroacetic acid salt]	803	44.2			
CC[C@@H](NC(=O)OC)C(=O)N1CCC[C@H]1c1ncc(-c2ccc3nc(-c4ccc(-c5c[nH]c([C@@H]6CCCN6C(=O)[C@@H](NC(=O)OC)C(C)C)n5)cc4)cnc3c2)[nH]1 [Example 59, Methyl {(2S)-1-[(2S)-2-{4-[4-(6-{2-[(2S)-1-{(2R)-2-[(methoxycarbonyl)amino]butanoyl}pyrrolidin-2-yl]-1H-imidazol-5-yl}quinoxalin-2-yl)phenyl]-1H-imidazol-2-yl}pyrrolidin-1-yl]-3-methyl-1-oxobutan-2-yl} carbamate trifluoroacetic acid salt]			2390	97.5	
COC(=O)N[C@@H](COCc1ccccc1)C(=O)N1CCC[C@H]1c1ncc(-c2ccc3nc(-c4ccc(-c5c[nH]c([C@@H]6CCCN6C(=O)[C@@H](NC(=O)OC)C(C)C)n5)cc4)cnc3c2)[nH]1 [Example 48, Methyl {(2S)-1-[(2S)-2-{4-[4-(6-{2-[(2S)-1-{(2S)-3-(benzyloxy)-2-[(methoxycarbonyl)amino]propanoyl}pyrro-lidin-2-yl]-1H-imidazol-5-yl}quinoxalin-2-yl)phenyl]-1H-imidazol-2-yl}pyrrolidin-1-yl]-3-methyl-1-oxobutan-2-yl}carbamate carbamate trifluoroacetic acid salt]			27.8	6.84	
CCC[C@H](NC(=O)OC)C(=O)N1CCC[C@H]1c1ncc(-c2ccc3nc(-c4ccc(-c5c[nH]c([C@@H]6CCCN6C(=O)[C@@H](NC(=O)OC)C(C)C)n5)cc4)cnc3c2)[nH]1 [Example 55, Methyl {(2S)-1-[(2S)-2-{5-[2-(4-{2-[(2S)-1-{(2S)-2-[(methoxycarbonyl)amino]-3-methylbutanoyl}pyrrolidin-2-yl]-1H-imidazol-4-yl}phenyl)quinoxalin-6-yl]-1H-imidazol-2-yl}pyrrolidin-1-yl]-1-oxopentan-2-yl}carbamate trifluoroacetic acid salt]	18.1	8.85			
COC(=O)N[C@H](C(=O)N1CCC[C@H]1c1nc(-c2ccc(-c3cnc4cc(-c5cnc([C@@H]6CCCN6C(=O)C(C)(C)NC(=O)OC)[nH]5)ccc4n3)cc2)c[nH]1)C(C)C [Example 51, Methyl {(2S)-1-[(2S)-2-{4-[4-(6-{2-[(2S)-1-{2-[(methoxycarbonyl)amino]-2-methylpropanoyl}pyrrolidin-2-yl]-1H-imidazol-5-yl}quinoxalin-2-yl)phenyl]-1H-imidazol-2-yl}pyrrolidin-1-yl]-3-methyl-1-oxobutan-2-yl}carbamate trifluoroacetic acid salt]	1850	144			
